Test results taken from ChEMBL document CHEMBL2073838, “Selectivity of the multidrug resistance modulator, LY335979, for P-glycoprotein and effect on cytochrome P-450 activities” (J Pharmacol Exp Ther, 1999).

What was measured:
[1] = target: ATP-dependent translocase ABCB1 (Homo sapiens, UniProt P08183); assay: TP_TRANSPORTER: cell accumulation in CCRF-CEM and CEM/VLB100 cells; format: functional, cell-based
[2] = target: ATP-binding cassette sub-family C member 2 (Homo sapiens, UniProt Q92887); assay: TP_TRANSPORTER: inhibition of LTC4 uptake (LTC4: 0.05 uM, MK571: 10 uM) in membrane vesicles from MRP2-expressing MDCK cells; format: functional, cell membranes, Membrane vesicle; conditions: dog
Sequence of ATP-binding cassette sub-family C member 2 (Q92887 whole entry): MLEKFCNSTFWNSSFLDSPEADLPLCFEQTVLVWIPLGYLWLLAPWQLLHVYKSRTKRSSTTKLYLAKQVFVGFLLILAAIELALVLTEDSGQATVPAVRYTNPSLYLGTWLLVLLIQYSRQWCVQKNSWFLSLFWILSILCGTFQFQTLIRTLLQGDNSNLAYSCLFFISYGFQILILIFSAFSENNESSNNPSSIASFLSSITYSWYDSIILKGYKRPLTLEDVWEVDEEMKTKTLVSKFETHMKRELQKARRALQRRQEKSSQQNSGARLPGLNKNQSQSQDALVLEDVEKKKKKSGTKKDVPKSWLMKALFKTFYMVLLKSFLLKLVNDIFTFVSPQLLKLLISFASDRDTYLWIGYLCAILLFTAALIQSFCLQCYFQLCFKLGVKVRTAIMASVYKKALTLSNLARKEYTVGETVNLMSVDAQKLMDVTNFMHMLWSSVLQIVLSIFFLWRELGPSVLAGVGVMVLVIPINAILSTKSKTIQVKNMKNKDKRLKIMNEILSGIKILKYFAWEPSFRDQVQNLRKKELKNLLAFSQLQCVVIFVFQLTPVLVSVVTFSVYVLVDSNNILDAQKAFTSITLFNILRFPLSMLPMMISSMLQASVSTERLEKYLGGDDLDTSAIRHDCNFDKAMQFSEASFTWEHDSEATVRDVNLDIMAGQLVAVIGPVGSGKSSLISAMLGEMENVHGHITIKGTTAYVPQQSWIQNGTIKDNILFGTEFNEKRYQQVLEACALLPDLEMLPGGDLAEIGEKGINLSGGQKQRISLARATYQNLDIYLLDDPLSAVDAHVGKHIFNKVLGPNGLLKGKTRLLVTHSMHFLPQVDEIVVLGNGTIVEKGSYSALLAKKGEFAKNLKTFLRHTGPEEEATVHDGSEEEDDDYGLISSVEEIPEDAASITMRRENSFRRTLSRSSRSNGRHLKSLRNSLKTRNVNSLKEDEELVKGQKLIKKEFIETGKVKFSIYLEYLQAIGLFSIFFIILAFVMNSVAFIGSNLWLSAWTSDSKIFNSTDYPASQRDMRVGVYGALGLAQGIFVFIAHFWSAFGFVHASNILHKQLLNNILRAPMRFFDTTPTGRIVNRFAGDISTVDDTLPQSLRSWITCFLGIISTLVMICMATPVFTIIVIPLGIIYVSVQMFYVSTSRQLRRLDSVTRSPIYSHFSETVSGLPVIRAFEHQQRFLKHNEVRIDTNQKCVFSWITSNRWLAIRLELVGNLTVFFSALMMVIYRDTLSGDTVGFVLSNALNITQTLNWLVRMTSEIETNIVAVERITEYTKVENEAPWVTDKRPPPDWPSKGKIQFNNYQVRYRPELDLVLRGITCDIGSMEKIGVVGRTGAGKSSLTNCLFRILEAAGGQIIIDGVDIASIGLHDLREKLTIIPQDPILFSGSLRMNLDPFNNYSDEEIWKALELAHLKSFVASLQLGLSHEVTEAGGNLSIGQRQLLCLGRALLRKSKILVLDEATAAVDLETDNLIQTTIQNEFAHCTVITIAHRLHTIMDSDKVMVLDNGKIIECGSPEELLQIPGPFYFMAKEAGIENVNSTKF

Sequence of ATP-dependent translocase ABCB1 (P08183 whole entry): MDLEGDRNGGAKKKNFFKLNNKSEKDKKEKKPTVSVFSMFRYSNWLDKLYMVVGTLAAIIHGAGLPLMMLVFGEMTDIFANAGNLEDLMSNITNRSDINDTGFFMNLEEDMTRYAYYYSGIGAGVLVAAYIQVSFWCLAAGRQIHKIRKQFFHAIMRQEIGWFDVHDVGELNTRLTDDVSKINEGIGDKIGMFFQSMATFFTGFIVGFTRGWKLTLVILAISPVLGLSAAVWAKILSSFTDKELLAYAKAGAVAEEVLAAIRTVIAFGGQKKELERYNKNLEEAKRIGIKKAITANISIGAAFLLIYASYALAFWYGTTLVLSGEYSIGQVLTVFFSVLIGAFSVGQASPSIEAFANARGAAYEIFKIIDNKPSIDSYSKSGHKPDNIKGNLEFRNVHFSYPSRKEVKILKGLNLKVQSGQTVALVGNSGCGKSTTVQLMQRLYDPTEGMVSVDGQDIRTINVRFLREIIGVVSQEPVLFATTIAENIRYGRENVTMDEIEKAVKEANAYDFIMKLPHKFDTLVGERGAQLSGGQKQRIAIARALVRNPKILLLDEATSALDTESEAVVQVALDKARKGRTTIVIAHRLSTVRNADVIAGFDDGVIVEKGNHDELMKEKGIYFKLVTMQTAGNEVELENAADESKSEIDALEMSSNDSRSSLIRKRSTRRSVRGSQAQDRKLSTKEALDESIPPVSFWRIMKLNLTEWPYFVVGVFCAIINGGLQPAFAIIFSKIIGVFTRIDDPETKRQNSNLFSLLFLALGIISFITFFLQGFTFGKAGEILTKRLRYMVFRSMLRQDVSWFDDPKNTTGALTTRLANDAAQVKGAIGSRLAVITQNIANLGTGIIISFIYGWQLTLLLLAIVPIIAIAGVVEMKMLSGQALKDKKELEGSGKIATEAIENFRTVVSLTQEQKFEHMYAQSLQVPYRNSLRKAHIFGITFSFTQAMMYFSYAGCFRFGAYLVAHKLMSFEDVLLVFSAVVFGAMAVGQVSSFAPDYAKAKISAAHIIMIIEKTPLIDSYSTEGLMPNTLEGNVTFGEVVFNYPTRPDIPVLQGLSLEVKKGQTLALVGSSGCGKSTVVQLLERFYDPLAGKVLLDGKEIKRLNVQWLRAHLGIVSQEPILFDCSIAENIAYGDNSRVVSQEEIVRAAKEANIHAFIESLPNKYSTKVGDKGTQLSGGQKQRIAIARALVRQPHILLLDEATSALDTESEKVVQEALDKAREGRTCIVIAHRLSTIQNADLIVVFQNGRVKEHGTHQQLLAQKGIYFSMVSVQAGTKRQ

Activity [2]	SMILES	Activity [1]
	Cl.Cl.Cl.O[C@@H](COc1cccc2ncccc12)CN1CCN([C@@H]2c3ccccc3[C@@H]3[C@H](c4ccccc42)C3(F)F)CC1 [ZOSUQUIDAR TRIHYDROCHLORIDE]	is not a substrate [-]
	CC[C@]1(O)C[C@@H]2CN(CCc3c([nH]c4ccccc34)[C@@](C(=O)OC)(c3cc4c(cc3OC)N(C)[C@H]3[C@@](O)(C(=O)OC)[C@H](OC(C)=O)[C@]5(CC)C=CCN6CC[C@]43[C@@H]65)C2)C1 [VINBLASTINE]	substrate [+]
inhibitor [+]	CN(C)C(=O)CCSC(SCCC(=O)O)c1cccc(/C=C/c2ccc3ccc(Cl)cc3n2)c1 (stereo not drawn) [MK-571]	
